The experiment relates to ISG reporter activity in THP1-Dual cell. As to the kind of experiment: ISG reporter assay. In kind it is cell-based. Conditions: Homo sapiens, compounds incubated with cells for 24 hours, QUANTI-Blue, absorbance at 655 nm. (In general: In a reporter assay the amount or activity of a reporter protein is the signal.)

As for `CCn1nc(C)cc1C(=O)Nc1nc2cc(C(N)=O)cc(OC)c2n1C/C=C/Cn1c(NC(=O)c2cc(C)nn2CC)nc2cc(C(N)=O)cc(OCC#CCC3CCN(C(=O)OCCO)CC3)c21` [Example 45, 2-hydroxyethyl (E)-4-(4-((5-carbamoyl-1-(4-(5-carbamoyl-2-(1-ethyl-3-methyl-1H-pyrazole-5-carboxamido)-7-methoxy-1H-benzo[d]imidazol-1-yl)but-2-en-1-yl)-2-(1-ethyl-3-methyl-1H-pyrazole-5-carboxamido)-1H-benzo[d]imidazol-7-yl)oxy)but-2-yn-1-yl)piperidine-1-carboxylate], the EC50 is less than 0.05 µM.
In turn, `CCn1nc(C)cc1C(=O)Nc1nc2cc(C(=O)NOC)cc(OC)c2n1C/C=C/Cn1c(NC(=O)c2cc(C)nn2CC)nc2cc(C(N)=O)cc(OCC#CCN3CCOCC3)c21` [Example 40, (E)-1-(4-(5-carbamoyl-2-(1-ethyl-3-methyl-1H-pyrazole-5-carboxamido)-7-((4-morpholinobut-2-yn-1-yl)oxy)-1H-benzo[d]imidazol-1-yl)but-2-en-1-yl)-2-(1-ethyl-3-methyl-1H-pyrazole-5-carboxamido)-N,7-dimethoxy-1H-benzo[d]imidazole-5-carboxamide] returned an EC50 of 0.05 to 0.5 µM.
In the case of `CCn1nc(C)cc1C(=O)Nc1nc2cc(C(N)=O)cc(OC)c2n1C/C=C/Cn1c(NC(=O)c2cc(C)nn2CC)nc2cc(C(N)=O)cc(OCC#CCC3CCCN(C(=O)OC(C)(C)C)C3)c21` (stereo not shown) [Example 52, tert-butyl (E)-3-(4-((5-carbamoyl-1-(4-(5-carbamoyl-2-(1-ethyl-3-methyl-1H-pyrazole-5-carboxamido)-7-methoxy-1H-benzo[d]imidazol-1-yl)but-2-en-1-yl)-2-(1-ethyl-3-methyl-1H-pyrazole-5-carboxamido)-1H-benzo[d]imidazol-7-yl)oxy)but-2-yn-1-yl)piperidine-1-carboxylate] it was less than 0.05 µM.
In the case of `CCn1nc(C)cc1C(=O)Nc1nc2cc(C(N)=O)cc(OC)c2n1C/C=C/Cn1c(NC(=O)c2cc(C)nn2CC)nc2cc(C(N)=O)cc(OCC#CC3CCCN(C(=O)OC(C)(C)C)C3)c21` (stereo not shown) [Example 32, tert-butyl (E)-3-(3-((5-carbamoyl-1-(4-(5-carbamoyl-2-(1-ethyl-3-methyl-1H-pyrazole-5-carboxamido)-7-methoxy-1H-benzo[d]imidazol-1-yl)but-2-en-1-yl)-2-(1-ethyl-3-methyl-1H-pyrazole-5-carboxamido)-1H-benzo[d]imidazol-7-yl)oxy)prop-1-yn-1-yl)piperidine-1-carboxylate] it was less than 0.05 µM.

Broadly, the EC50 is the midpoint of the concentration-response curve. Read a high EC50 as a need for much substance.

The record behind these values is patent US20230219931A1, “FUSED HETEROARYL HYDROXAMATES AS STING AGONISTS” (BiSiChem Co., Ltd., priority 2022, published 2023).
